This is an account of results in patent US11702404B2, “GLP-1R modulating compounds” (priority 2019, dated 2023).

SMILES strings stand for the structures. Where two headings read alike, the source gives them in different places.

Data set [1] can be described thus: Microsomal stability, human liver microsomes (predicted hepatic clearance). The settings on record: predicted from in vitro microsomal stability data.
Data set [2] addresses GLP-1R (Homo sapiens, UniProt P43220). Put plainly: GLP-1R activation: cAMP increase in CHO cells stably expressing GLP-1R. In kind it is cell-based.
Where [3] appears, read: cAMP increase, CHO cells stably expressing GLP-1R, 10 point dose response, 30 minutes incubation, read-out: EC50.

Chain of GLP-1R (P43220 24-463): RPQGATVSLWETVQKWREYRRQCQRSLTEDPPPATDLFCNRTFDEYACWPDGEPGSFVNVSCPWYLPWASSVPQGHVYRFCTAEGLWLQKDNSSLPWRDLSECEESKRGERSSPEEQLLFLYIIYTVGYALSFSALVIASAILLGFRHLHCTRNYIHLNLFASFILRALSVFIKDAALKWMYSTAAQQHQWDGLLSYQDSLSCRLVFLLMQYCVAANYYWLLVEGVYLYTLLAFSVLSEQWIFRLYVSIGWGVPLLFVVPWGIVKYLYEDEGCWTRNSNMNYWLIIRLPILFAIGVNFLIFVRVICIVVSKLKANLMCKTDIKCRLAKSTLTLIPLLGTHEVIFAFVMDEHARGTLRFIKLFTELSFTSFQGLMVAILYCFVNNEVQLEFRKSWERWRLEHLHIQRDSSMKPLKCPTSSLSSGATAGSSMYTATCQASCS

Usually EC50 stands for the concentration that produces a half-maximal response. Regarding `COCCn1c(Cc2ccc(-c3cccc(OCc4ccc(C#N)cc4F)n3)c(C)c2)nc2ccc(C(=O)O)cc21` [Example 21, 2-(4-(6-((4-cyano-2-fluorobenzyl)oxy)pyridin-2-yl)-3-methylbenzyl)-1-(2-methoxyethyl)-1H-benzo[d]imidazole-6-carboxylic acid], the “Predicted Hepatic Clearance (Pred. Cl.)” value in data set [1] was less than 1.83 mL/min/kg. The midpoint of the response in data set [2] (EC50 (nM)), the EC50, lay at 70.9 nM.
As to `COCCn1c(Cc2ccc(-c3cccc(OCc4ccc(C#N)cc4F)n3)cc2C#N)nc2ccc(C(=O)O)cc21` [Example 22, 2-(2-cyano-4-(6-((4-cyano-2-fluorobenzyl)oxy)pyridin-2-yl)benzyl)-1-(2-methoxyethyl)-1H-benzo[d]imidazole-6-carboxylic acid], the “Predicted Hepatic Clearance (Pred. Cl.)” value in data set [1] was 3 mL/min/kg. Also, the 50% effective concentration (EC50) in data set [2] (setting [3]) came to 0.78 nM.
For the compound `COCCn1c(Cc2ccc(-c3nccc(OCc4ccc(C#N)cc4F)n3)cc2F)nc2ccc(C(=O)O)cc21` [Example 25, 2-{[4-[4-[(4-cyano-2-fluoro-phenyl)methoxy]pyrimidin-2-yl]-2-fluoro-phenyl]methyl}-3-(2-methoxyethyl)benzimidazole-5-carboxylic acid], the “Predicted Hepatic Clearance (Pred. Cl.)” value in data set [1] is 7.33 mL/min/kg. The EC50 in data set [2] (setting [3]) came to 25.9 nM.
The matching figures for `COCCn1c(Cc2ccc(-c3csc(OCc4ccc(C#N)cc4F)n3)cc2F)nc2ccc(C(=O)O)cc21` [Example 26, 2-(4-(2-((4-cyano-2-fluorobenzyl)oxy)thiazol-4-yl)-2-fluorobenzyl)-1-(2-methoxyethyl)-1H-benzo[d]imidazole-6-carboxylic acid]: 4.67 mL/min/kg and 115 nM.
In the case of `COCCn1c(Cc2ccc(-c3cc(F)cc(OCc4ccc(C#N)cc4F)c3)cc2F)nc2ccc(C(=O)O)cc21` [Example 27, 2-((3′-((4-cyano-2-fluorobenzyl)oxy)-3,5′-difluoro-[1,1′-biphenyl]-4-yl)methyl)-1-(2-methoxyethyl)-1H-benzop[d]imidazole-6-carboxylic acid], the “Predicted Hepatic Clearance (Pred. Cl.)” value in data set [1] was 2.5 mL/min/kg. The EC50 in data set [2] (setting [3]) worked out at 78 nM.
In the case of `COCCn1c(Cc2ccc(-c3cc(OCc4ccc(C#N)cc4F)ccc3F)cc2F)nc2ccc(C(=O)O)cc21` [Example 28, 2-((5′-((4-cyano-2-fluorobenzyl)oxy)-2′,3-difluoro-[1,1′-biphenyl]-4-yl)methyl)-1-(2-methoxyethyl)-1H-benzo[d]imidazole-6-carboxylic acid], in data set [1], the “Predicted Hepatic Clearance (Pred. Cl.)” value is 3.17 mL/min/kg. Further, in data set [2] (setting [3]), the concentration giving a half-maximal response (EC50) came to 94 nM.
With `COCCn1c(Cc2ccc(-c3cc(C#N)cc(OCc4ccc(C#N)cc4F)c3)cc2F)nc2ccc(C(=O)O)cc21` [Example 29, 2-((3′-cyano-5′-((4-cyano-2-fluorobenzyl)oxy)-3-fluoro-[1,1′-biphenyl]-4-yl)methyl)-1-(2-methoxyethyl)-1H-benzo[d]imidazole-6-carboxylic acid], the “Predicted Hepatic Clearance (Pred. Cl.)” value in data set [1] was 5.17 mL/min/kg. In addition, in data set [2] (setting [3]), the EC50 was 57 nM.
Turning to `COCCn1c(Cc2ccc(-c3cc(OC)cc(OCc4ccc(C#N)cc4F)c3)cc2F)nc2ccc(C(=O)O)cc21` [Example 30, 2-((3′-((4-cyano-2-fluorobenzyl)oxy)-3-fluoro-5′-methoxy-[1,1′-biphenyl]-4-yl)methyl)-1-(2-methoxyethyl)-1H-benzo[d]imidazole-6-carboxylic acid], the “Predicted Hepatic Clearance (Pred. Cl.)” value in data set [1] is 4.67 mL/min/kg. Further, the EC50 in data set [2] (setting [3]) was found to be 1350 nM.
`COCCn1c(Cc2ccc(-c3cc(C)cc(OCc4ccc(C#N)cc4F)n3)cc2F)nc2ccc(C(=O)O)cc21` [Example 31, 2-(4-(6-((4-cyano-2-fluorobenzyl)oxy)-4-methylpyridin-2-yl)-2-fluorobenzyl)-1-(2-methoxyethyl)-1H-benzo[d]imidazole-6-carboxylic acid]: the “Predicted Hepatic Clearance (Pred. Cl.)” value in data set [1] is 4.67 mL/min/kg. In addition, the concentration for a half-maximal effect (EC50) in data set [2] (setting [3]) is 32 nM.
For `COCCn1c(C2(c3ccc(-c4cccc(OCc5ccc(C#N)cc5F)n4)cc3)CC2)nc2ccc(C(=O)O)cc21` [Example 32, 2-(1-(4-(6-((4-cyano-2-fluorobenzyl)oxy)pyridin-2-yl)phenyl)cyclopropyl)-1-(2-methoxyethyl)-1H-benzo[d]imidazole-6-carboxylic acid], in data set [1], the “Predicted Hepatic Clearance (Pred. Cl.)” value was 7.83 mL/min/kg. Also, the EC50 in data set [2] (setting [3]) is greater than 1000 nM.
On to `COCCn1c(Cc2ccc(-c3cccc(OCc4ccc(C#N)cc4F)n3)cc2OC)nc2ccc(C(=O)O)cc21` [Example 33, 2-(4-(6-((4-cyano-2-fluorobenzyl)oxy)pyridin-2-yl)-2-methoxybenzyl)-1-(2-methoxyethyl)-1H-benzo[d]imidazole-6-carboxylic acid], for which the “Predicted Hepatic Clearance (Pred. Cl.)” value in data set [1] is 5 mL/min/kg. Moreover, the EC50 in data set [2] (setting [3]) came to 26.9 nM.
For the compound `COCCn1c(Cc2ccc(-c3cccc(OCc4ccc(C#N)cc4F)n3)c(C(F)(F)F)c2)nc2ccc(C(=O)O)cc21` [Example 34, 2-(4-(6-((4-cyano-2-fluorobenzyl)oxy)pyridin-2-yl)-3-(trifluoromethyl)benzyl)-1-(2-methoxyethyl)-1H-benzo[d]imidazole-carboxylic acid], the “Predicted Hepatic Clearance (Pred. Cl.)” value in data set [1] is 9.83 mL/min/kg. For the same compound, the 50% effective concentration (EC50) in data set [2] (setting [3]) is 2180 nM.
For `COCCn1c(Cc2ccc(-c3cccc(OCc4ccc(C#N)cc4F)n3)c3ccccc23)nc2ccc(C(=O)O)cc21` [Example 35, 2-((4-(6-((4-cyano-2-fluorobenzyl)oxy)pyridin-2-yl)naphthalen-1-yl)methyl)-1-(2-methoxyethyl)-1H-benzo[d]imidazole-carboxylic acid] the same measures were 5.17 mL/min/kg and 1000 nM.
In the case of `COCCn1c(C2CCc3cc(-c4cccc(OCc5ccc(C#N)cc5F)n4)ccc32)nc2ccc(C(=O)O)cc21` (stereo not shown) [Example 36, 2-(5-(6-((4-cyano-2-fluorobenzyl)oxy)pyridin-2-yl)-2,3-dihydro-1H-inden-1-yl)-1-(2-methoxyethyl)-1H-benzo[d]imidazole-carboxylic acid], in data set [1], the “Predicted Hepatic Clearance (Pred. Cl.)” value is 4 mL/min/kg. For the same compound, in data set [2] (setting [3]), the EC50 was found to be 107 nM.
For the compound `COCCn1c(C2OCCc3cc(-c4cccc(OCc5ccc(C#N)cc5F)n4)ccc32)nc2ccc(C(=O)O)cc21` (stereo not shown) [Example 37, 2-(6-(6-((4-cyano-2-fluorobenzyl)oxy)pyridin-2-yl)isochroman-1-yl)-1-(2-methoxyethyl)-1H-benzo[d]imidazole-carboxylic acid], the “Predicted Hepatic Clearance (Pred. Cl.)” value in data set [1] is 8.67 mL/min/kg. For the same compound, the concentration for a half-maximal effect (EC50) in data set [2] (setting [3]) stood at 927 nM.
For `COCCn1c(Cc2ccc(-c3cccc(OCc4ccc(C#N)cc4F)n3)cc2Cl)nc2ccc(C(=O)O)cc21` [Example 38, 2-(2-chloro-4-(6-((4-cyano-2-fluorobenzyl)oxy)pyridin-2-yl)benzyl)-1-(2-methoxyethyl)-1H-benzo[d]imidazole-carboxylic acid] the same measures were 5.33 mL/min/kg and 6.18 nM.
For the compound `COCCn1c(Cc2c(F)cc(-c3cccc(OCc4ccc(C#N)cc4F)n3)cc2F)nc2ccc(C(=O)O)cc21` [Example 39, 2-(4-(6-((4-cyano-2-fluorobenzyl)oxy)pyridin-2-yl)-2,6-difluorobenzyl)-1-(2-methoxyethyl)-1H-benzo[d]imidazole-carboxylic acid], the “Predicted Hepatic Clearance (Pred. Cl.)” value in data set [1] is less than 1.83 mL/min/kg. Moreover, the half-maximal effective concentration (EC50) in data set [2] (setting [3]) was found to be 8.79 nM.
With `COCCn1c(Cc2ccc(-c3cccc(OCc4ccc(C#N)cc4F)n3)cc2OC(F)(F)F)nc2ccc(C(=O)O)cc21` [Example 40, 2-(4-(6-((4-cyano-2-fluorobenzyl)oxy)pyridin-2-yl)-2-(trifluoromethoxy)benzyl)-1-(2-methoxyethyl)-1H-benzo[d]imidazole-6-carboxylic acid], the “Predicted Hepatic Clearance (Pred. Cl.)” value in data set [1] was less than 1.83 mL/min/kg. Moreover, the EC50 in data set [2] (setting [3]) amounted to 456 nM.
For `COCCn1c(C2CCOc3cc(-c4cccc(OCc5ccc(C#N)cc5F)n4)ccc32)nc2ccc(C(=O)O)cc21` (stereo not shown) [Example 41, 2-(7-(6-((4-cyano-2-fluorobenzyl)oxy)pyridin-2-yl)chroman-4-yl)-1-(2-methoxyethyl)-1H-benzo[d]imidazole-carboxylic acid] the same measures were 6 mL/min/kg and 1460 nM.
Turning to `COCCn1c(Cc2ccc(-c3cccc(OCc4ccc(C#N)cc4F)n3)cc2OC(F)F)nc2ccc(C(=O)O)cc21` [Example 42, 2-(4-(6-((4-cyano-2-fluorobenzyl)oxy)pyridin-2-yl)-2-(difluoromethoxy)benzyl)-1-(2-methoxyethyl)-1H-benzo[d]imidazole-6-carboxylic acid], the “Predicted Hepatic Clearance (Pred. Cl.)” value in data set [1] is 3.83 mL/min/kg. In addition, the EC50 in data set [2] (setting [3]) stood at 38.2 nM.
In the case of `COCCn1c(Cc2ccc(-c3cccc(OCc4ccc(C#N)cc4F)n3)nc2)nc2ccc(C(=O)O)cc21` [Example 43, 2-{[6-[6-[(4-cyano-2-fluoro-phenyl)methoxy]-2-pyridyl]-3-pyridyl]methyl}-3-(2-methoxyethyl)benzimidazole-5-carboxylic acid], the “Predicted Hepatic Clearance (Pred. Cl.)” value in data set [1] was 5.83 mL/min/kg. Also, the EC50 in data set [2] (setting [3]) amounted to 163 nM.
`COCCn1c(Cc2cnc(-c3cccc(OCc4ccc(C#N)cc4F)n3)nc2)nc2ccc(C(=O)O)cc21` [Example 44, 2-((2-(6-((4-cyano-2-fluorobenzyl)oxy)pyridin-2-yl)pyrimidin-5-yl)methyl)-1-(2-methoxyethyl)-1H-benzo[d]imidazole-6-carboxylic acid]: the “Predicted Hepatic Clearance (Pred. Cl.)” value in data set [1] was 3 mL/min/kg. The concentration giving a half-maximal response (EC50) in data set [2] (setting [3]) turned out to be 212 nM.
As to `COCCn1c(Cc2ccc(-c3cccc(OCc4ccc(C#N)cc4F)n3)c(F)c2F)nc2ccc(C(=O)O)cc21` [Example 45, 2-(4-(6-((4-cyano-2-fluorobenzyl)oxy)pyridin-2-yl)-2,3-difluorobenzyl)-1-(2-methoxyethyl)-1H-benzo[d]imidazole-6-carboxylic acid], the “Predicted Hepatic Clearance (Pred. Cl.)” value in data set [1] was 3.83 mL/min/kg. Besides, in data set [2] (setting [3]), the EC50 is 36 nM.
